Assay [1] deals with T1, human Nox4 (Homo sapiens, UniProt Q9NPH5).
T1 construct: expressed in transfected cells; host or cells: T-REx-293 (hNOX4 T-REx-293), tetracycline-induced; membrane fraction
T1 sequence (Q9NPH5 1-578): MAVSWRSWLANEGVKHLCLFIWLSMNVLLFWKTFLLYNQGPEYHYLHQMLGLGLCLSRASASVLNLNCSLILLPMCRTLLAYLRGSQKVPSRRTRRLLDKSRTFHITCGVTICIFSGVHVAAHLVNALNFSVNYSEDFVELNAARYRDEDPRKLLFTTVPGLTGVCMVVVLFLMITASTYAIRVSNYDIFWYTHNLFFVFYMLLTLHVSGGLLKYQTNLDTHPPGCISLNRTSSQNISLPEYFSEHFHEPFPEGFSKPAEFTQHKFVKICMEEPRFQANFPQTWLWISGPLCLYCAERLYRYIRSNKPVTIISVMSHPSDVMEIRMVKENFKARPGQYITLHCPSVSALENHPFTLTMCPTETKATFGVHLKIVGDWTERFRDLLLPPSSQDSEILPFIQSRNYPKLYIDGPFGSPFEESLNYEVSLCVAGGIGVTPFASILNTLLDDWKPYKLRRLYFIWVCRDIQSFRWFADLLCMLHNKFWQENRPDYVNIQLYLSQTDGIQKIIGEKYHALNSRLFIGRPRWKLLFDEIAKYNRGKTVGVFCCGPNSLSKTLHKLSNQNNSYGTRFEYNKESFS
T1 sequence (P13498 2-195 partner limits assumed): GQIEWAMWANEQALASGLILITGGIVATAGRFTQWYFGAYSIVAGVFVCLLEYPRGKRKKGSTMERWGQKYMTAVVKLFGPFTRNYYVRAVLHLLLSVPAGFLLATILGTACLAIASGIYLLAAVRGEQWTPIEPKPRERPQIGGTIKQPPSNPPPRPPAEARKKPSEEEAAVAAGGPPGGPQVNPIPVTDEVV
The assay is described as follows: ROS production by membranes expressing human Nox4, cell-free Amplex Red assay. Particulars: cell-free membranes, Amplex Red; Cheng-Prusoff; average of at least three experiments in triplicate; read-out: Ki hNox4. The assay is classed as biochemical. From the text: (§1) The Nox4 activity of Nox4 inhibitors according to the invention may be tested for their activity in the inhibition or reduction of formation of reactive oxygen species (ROS) from oxygen in cell free assays. In order to fully characterise Nox4 inhibitors, Nox subunit-specific cell-free, membrane-based systems have been developed and specific recombinant proteins have been added to membranes heterologously over-expressing their specific iso form. Nox enzymes produce superoxide (O2.−) as primary product, however due to the high instability and reactivity of this molecule which dismutates naturally into hydrogen peroxide (H2O2), therefore, read-out techniques involving probes that do measure H2O2 were used (e.g. using Amplex Red as a probe in order to facilitate consistent and accurate measurements). The activity of the compounds is tested in the following cell free assay using the techniques described here below:
Transfected T-REx™-CHO cells (R718-07) purchased from Invitrogen and T-REx™-293 cell line expressing hNOX4 (hNOX4 T-REx™-293) (Serrander et al., 2007, Biochem. J., 406, 105-114) were cultured in […]. Both media were supplemented with 10% FBS, 2 mM glutamine, penicillin (100 U/ml) and streptomycin (100 μg/ml). Selection pressure was maintained by continuous inclusion of blasticidin (5 μg/ml), and/or G418 (0.25 mg/ml), and/or Hygromycin (0.25 mg/ml) and/or zeocin (0.025 mg/ml).
(§2) Human Nox1, Nox2, Nox4, and Nox5 expression were induced with Tetracycline (1 μg/ml) during 24 h prior to the membrane preparation Membranes from transfected cells overexpressing Nox1, Nox2, Nox4 or Nox5 were prepared as previously described in Palicz et al., 2001, J. Biol. Chem., 76, 3090-3097. After resuspension in sonication buffer (11% sucrose, 120 mM NaCl, 1 mM EGTA in PBS, pH 7.4 for Nox4- or NOX5-expressing cells) or in relax buffer (10 mM Pipes, 3 mM NaCl, 3.5 mM MgCl2, 0.1M KCl, pH 7.4), cells were broken by sonication and centrifuged (200 g, 10 min). The supernatant was layered onto a 17/40% (w/v) discontinuous sucrose gradient and centrifuged (150,000×g for 60 min). Membrane fractions were collected from the 17/40% interface and were stored at −80° C. Protein concentration was determined with the Bradford reagent.
(§3) Reactive Oxygen Species (ROS) production by membranes expressing either human Nox1, or human Nox2 or human Nox4 or human Nox5 or by xanthine/xanthine oxidase were measured using the Amplex Red (AR) method following a slightly modified version of the manufacturer's instruction manual (Invitrogen). Briefly, membranes or xanthine were incubated in PBS with Amplex Red, Horse Radish Peroxidase (HRP) and appropriated co-factors. ROS production was induced by addition of NADPH to NOX-expressing membrane or by addition of xanthine to xanthine oxidase. Non-specific signal was measured in the absence of membranes or in the absence of xanthine.
Antagonist activity of compounds was measured in the presence of increasing concentrations ranging from 1 nM to 100 μM. After an incubation of 20 min in a plate shaker and incubator (Titramax 1000, VWR) at 37° C. with weak agitation (300 rpm), ROS levels were measured for 10 min in a BMG Fluostar microplate reader with excitation and emission wavelengths of 544 nm and 590 nm respectively.
Data were analysed using Prism (GraphPad Software Inc., San Diego, Calif.). Ki values were calculated using the Cheng-Prusoff equation and represent the average of at least three individual experiments performed in triplicate (Table 1). Nox4 inhibition was compared to that measured for Simvastatin (Enzo Life Sciences, CAS Number 79902-63-9) using the method described in Example 1. Reactive Oxygen Species (ROS) production by membranes expressing human Nox4 was measured using the Amplex Red (AR).

Assay [2] addresses T2, human Nox2 (Homo sapiens, UniProt P04839).
T2 construct: host or cells: T-REx-CHO (hNOX2 T-REx-CHO), tetracycline-induced; membrane fraction
T2 sequence (P04839 2-570 limits assumed): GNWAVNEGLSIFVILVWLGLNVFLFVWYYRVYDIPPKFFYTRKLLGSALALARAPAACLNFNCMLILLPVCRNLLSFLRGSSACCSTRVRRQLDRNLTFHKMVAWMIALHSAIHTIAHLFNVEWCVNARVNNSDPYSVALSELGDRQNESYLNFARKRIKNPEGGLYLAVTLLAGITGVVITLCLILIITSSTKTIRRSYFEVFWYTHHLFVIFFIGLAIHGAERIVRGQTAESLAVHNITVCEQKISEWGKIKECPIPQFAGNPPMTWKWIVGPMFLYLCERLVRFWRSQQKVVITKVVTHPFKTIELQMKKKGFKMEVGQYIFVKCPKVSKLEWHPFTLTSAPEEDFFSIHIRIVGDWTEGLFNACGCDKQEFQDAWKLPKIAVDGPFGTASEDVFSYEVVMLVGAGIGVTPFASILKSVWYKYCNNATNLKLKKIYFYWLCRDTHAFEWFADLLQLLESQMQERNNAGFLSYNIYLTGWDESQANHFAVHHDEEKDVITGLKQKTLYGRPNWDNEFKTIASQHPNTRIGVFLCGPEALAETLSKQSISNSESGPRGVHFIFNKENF
T2 sequence (P13498 2-195 partner limits assumed): T1 sequence (P13498 2-195 partner limits assumed)
The assay can be described thus: ROS production by membranes expressing human Nox2, cell-free Amplex Red assay. The assay is classed as biochemical. Particulars: cell-free membranes, Amplex Red; Cheng-Prusoff; average of at least three experiments in triplicate; read-out: Ki hNox2.
From the text: as §1
Human Nox1 (NM_007052.4), human NOX2 (NM_000397), and human NOX5 (NM_0245052244) cDNAs were cloned into the pcDNA5/TO (Invitrogen). Human p22 (NM_000101.2) was cloned into pcDNA3.1/Zeo (+) (Invitrogen), and human NOXA1 (AY255769.1) and human NOXO1 (AB097667) were cloned into the bi-cistronic pVITRO1-neo-mcs plasmid (Invivogen).
Cells were transfected by using the FuGENE 6 method. Cells stably expressing functional human Nox1 (hNOX1 T-REx™-CHO) were obtained by co-transfecting T-REx™-CHO cells with human Nox1, human p22, human NOXA1 and human NOXO1. Cells stably expressing functional human Nox2 (hNOX2 T-REx™-CHO) were obtained by co-transfecting T-REx™-CHO cells with human nox2, human p22 and human cofactors. Cells stably expressing functional human Nox5 (hNOX5 T-REx™-CHO) were obtained by transfecting T-REx™-CHO cells with human Nox5. Co-transfected cells were selected with the appropriate antibiotics for 10 days. For the selection, hygromycin and G418 were used at 2 mg/ml and zeocin at 0.1 mg/ml. For the establishment of each stably transfected cell line, a pool of antibiotic-resistant cells was generated. Cells were cloned by limiting dilution. Several clones were established and investigated for ROS production upon tetracycline-induced hNox expression using a cellular AR assay. The expression of NOXes was done with tetracycline (1 μg/ml) during 24 h prior to the assay.
as §2, §3
Antagonist activity of compounds was measured in the presence of increasing concentrations ranging from 1 nM to 100 μM. […]

These results are taken from patent US20140323500A1, “NADPH OXIDASE 4 INHIBITORS AND USE THEREOF” (GENKYOTEX SA, priority 2011, published 2014).

pKi: −log10 of the molar value.

By pKi is commonly meant the negative decadic logarithm of the Ki, by convention in mol/L.

Take `COc1ccc(-c2c3c(=O)n(-c4ccccc4Cl)[nH]c3cc(=O)n2Cc2cnccn2)cc1` [(2), 2-(2-chlorophenyl)-4-(4-methoxyphenyl)-5-(pyrazin-2-ylmethyl)-1H-pyrazolo[4,3-c]pyridine-3,6(2H,5H)-dione]: the pKi is 7.32 in assay [1] and 6.17 in assay [2].
For `COc1ccccc1-n1[nH]c2cc(=O)n(Cc3cnccn3)c(-c3ccc(Cl)cc3)c2c1=O` [(3), 4-(4-chlorophenyl)-2-(2-methoxyphenyl)-5-(pyrazin-2-ylmethyl)-1H-pyrazolo[4,3-c]pyridine-3,6(2H,5H)-dione] the same measures were 7.24 and 6.13.
On to `O=c1c2c(-c3cc(Cl)ccc3F)n(Cc3ccncc3)c(=O)cc2[nH]n1-c1ccccc1Cl` [(12), 4-(5-chloro-2-fluorophenyl)-2-(2-chlorophenyl)-5-(pyridin-4-ylmethyl)-1H-pyrazolo[4,3-c]pyridine-3,6(2H,5H)-dione], for which the pKi in assay [1] is 7.10.
The same measure, in the same setting: then `COc1cccc(-c2c3c(=O)n(-c4ccccc4OC)[nH]c3cc(=O)n2Cc2ccn(C)n2)c1` [(20), 2-(2-methoxyphenyl)-4-(3-methoxyphenyl)-5-[(1-methyl-1H-pyrazol-3-yl)methyl]-1H-pyrazolo[4,3-c]pyridine-3,6(2H,5H)-dione], with 7.03; and `COc1ccc(-c2c3c(=O)n(-c4ccccc4OC)[nH]c3cc(=O)n2Cc2ccn(C)n2)cc1` [(23), 2-(2-methoxyphenyl)-4-(4-methoxyphenyl)-5-[(1-methyl-1H-pyrazol-3-yl)methyl]-1H-pyrazolo[4,3-c]pyridine-3,6(2H,5H)-dione], with 7.01.
Same read-out and setting: then `COc1cccc(-c2c3c(=O)n(-c4ccccc4OC)[nH]c3cc(=O)n2Cc2cccnc2)c1` [(24), 2-(2-methoxyphenyl)-4-(3-methoxyphenyl)-5-(pyridin-3-ylmethyl)-1H-pyrazolo[4,3-c]pyridine-3,6(2H,5H)-dione], with 7.00; and `O=c1c2c(-c3c(F)cccc3F)n(Cc3ccncc3)c(=O)cc2[nH]n1-c1ccccc1Cl` [(28), 2-(2-chlorophenyl)-4-(2,6-difluorophenyl)-5-(pyridin-4-ylmethyl)-1H-pyrazolo[4,3-c]pyridine-3,6(2H,5H)-dione], with 6.96.
Take `O=c1c2c(-c3cccc(Cl)c3F)n(Cc3ccncc3)c(=O)cc2[nH]n1-c1ccccc1Cl` [(31), 4-(3-chloro-2-fluorophenyl)-2-(2-chlorophenyl)-5-(pyridin-4-ylmethyl)-1H-pyrazolo[4,3-c]pyridine-3,6(2H,5H)-dione]: in assay [1], the pKi is 6.95.
On the same count and under the same terms, next, `COc1ccc(-c2c3c(=O)n(-c4ccccc4OC)[nH]c3cc(=O)n2Cc2cccnc2)cc1` [(33), 2-(2-methoxyphenyl)-4-(4-methoxyphenyl)-5-(pyridin-3-ylmethyl)-1H-pyrazolo[4,3-c]pyridine-3,6(2H,5H)-dione]: 6.94.
`O=c1c2c(-c3cccc(Cl)c3F)n(Cc3cccnc3)c(=O)cc2[nH]n1-c1ccccc1Cl` [(38), 4-(3-chloro-2-fluorophenyl)-2-(2-chlorophenyl)-5-(pyridin-3-ylmethyl)-1H-pyrazolo[4,3-c]pyridine-3,6(2H,5H)-dione]: the pKi in assay [1] was 6.89.
Same read-out and setting: then `O=c1c2c(-c3c(F)cccc3F)n(Cc3cccnc3)c(=O)cc2[nH]n1-c1ccccc1Cl` [(40), 2-(2-chlorophenyl)-4-(2,6-difluorophenyl)-5-(pyridin-3-ylmethyl)-1H-pyrazolo[4,3-c]pyridine-3,6(2H,5H)-dione], with 6.83.
For the compound `COc1ccc(F)c(-c2c3c(=O)n(-c4ccccc4OC)[nH]c3cc(=O)n2Cc2cnccn2)c1` [(41), 4-(2-fluoro-5-methoxyphenyl)-2-(2-methoxyphenyl)-5-(pyrazin-2-ylmethyl)-1H-pyrazolo[4,3-c]pyridine-3,6(2H,5H)-dione], the pKi in assay [1] is 6.83.
On the same count and under the same terms, then `CN(C)c1cccc(-c2c3c(=O)n(-c4ccccc4Cl)[nH]c3cc(=O)n2Cc2ccn(C)n2)c1` [(43), 2-(2-chlorophenyl)-4-[3-(dimethylamino)phenyl]-5-[(1-methyl-1H-pyrazol-3-yl)methyl]-1H-pyrazolo[4,3-c]pyridine-3,6(2H,5H)-dione], with 6.90.
